Where two headings read alike, the source gives them in different places.
Assays:
hKv1.1/1.2 = hKv1.1/1.2 (Homo sapiens, UniProt P16389+Q09470); assay: Off-target Kv1.1/1.2 inhibition electrophysiology (Qpatch); type: cell-based; details: up to 30 μM
Procedure: The activity of selected compound examples at three key ion channel off targets was measured, namely Nav1.1, Kv1.1/1.2 and Kv7.2/7.3.
Effects of selected examples on inhibition of the voltage gated heteromeric potassium channel Kv1.1/1.2 was also tested in a use-dependent manner by electrophysiology at concentrations up to 30 μM.

human Kv3.4 = target: T1, human Kv3.4 (Homo sapiens, UniProt Q03721); assay: Manual patch clamp electrophysiology, HEK-293 cells stably expressing human Kv3.4; type: cell-based; details: for hKv3.4 ECΔ30% increase: concentration increasing current by 30% at the −10 mV step; for hKv3.4 ECΔ5 mV: concentration that shifts activation threshold by 5 mV
T1 construct: expressed in transfected cells
T1 sequence (Q03721 1-635): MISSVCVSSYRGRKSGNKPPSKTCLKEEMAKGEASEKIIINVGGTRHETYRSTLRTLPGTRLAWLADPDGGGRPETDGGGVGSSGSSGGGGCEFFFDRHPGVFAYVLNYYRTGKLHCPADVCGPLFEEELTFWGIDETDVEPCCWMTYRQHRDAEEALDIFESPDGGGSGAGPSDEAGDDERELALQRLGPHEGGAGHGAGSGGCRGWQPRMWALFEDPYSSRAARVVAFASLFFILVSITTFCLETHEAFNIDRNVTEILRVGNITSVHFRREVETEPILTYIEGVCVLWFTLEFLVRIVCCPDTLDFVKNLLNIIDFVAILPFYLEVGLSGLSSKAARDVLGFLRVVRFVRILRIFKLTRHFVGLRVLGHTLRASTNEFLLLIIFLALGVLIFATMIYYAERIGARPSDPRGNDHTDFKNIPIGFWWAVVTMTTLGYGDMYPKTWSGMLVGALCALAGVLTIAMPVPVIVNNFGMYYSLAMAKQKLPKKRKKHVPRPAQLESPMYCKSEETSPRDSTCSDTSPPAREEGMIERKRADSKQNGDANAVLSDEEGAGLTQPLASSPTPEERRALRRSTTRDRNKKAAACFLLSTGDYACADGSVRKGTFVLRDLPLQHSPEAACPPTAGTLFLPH
Procedure: Manual Patch Clamp Electrophysiological Evaluation, hKv3.1, hKv3.2, hKv3.3, hKv3.4:
HEK-293 cells stably expressing human Kv3.1b, Kv3.2, Kv3.3 or Kv3.4 were used for the experiments.
Kv3.1b, Kv3.2: Cells were cultured in MEM medium supplemented with 10% Fetal Bovine Serum, 1% Penicillin/Streptomycin, 2 mM glutamine and 0.6 mg/mL geneticin. Cells were grown to 80-90% confluency at 37° C. and 5% CO2 Kv3.3 or Kv3.4: Cells were cultured in DMEM medium supplemented with 10% Fetal Bovine Serum, 500 ug/mL Geneticidin and 1% Penicillin/Streptomycin. Cells were grown to 80-90% confluency at 37° C. and 5% CO2.
On the day of the experiment the cells were detached by TrypLE and resuspended in culture medium. Cells were centrifuged, media removed and the cells were resuspended in extracellular buffer containing (in mM): 130 Na-gluconate, 20 NaCl, 4 KCl, 1 MgCl2, 1.8 CaCl2, 10 HEPES and 5 glucose, pH 7.3 adjusted with NaOH, 310-320 mOsm
Patch-clamp recordings were performed using a manual patch-clamp system (Axon Multiclamp 700B, Digidata 1440, pCLAMP 10, Molecular Devices Corporation) with a fast perfusion system (RSC-160 Rapid solution Changer, BioLogic). Whole-cell recordings were carried out using an intracellular solution containing (in mM): 100 K-gluconate, 40 KCl, 10 HEPES, 1 EGTA, 1 MgCl2, pH 7.2 adjusted with KOH, 290-300 mOsm. Cell membrane potentials were held at −80 mV and current voltage-relationship was generated by voltage steps (50 ms duration) from −100 mV to +10 mV (in 10 mV increments) and then back to −100 mV for 50 ms, with inter-sweep interval of 3 s. The peak current amplitude of −10 mV was monitored until stable (<5% change) by using one step voltage protocol. One IV protocol was run as baseline, then compound perfusion was stared and peak current stability was monitored with single step protocol prior to the IV protocol. Single concentrations were measured per cell. Acceptable cells had seal resistance >500 MOhm, Access resistance <10 MOhm, and leak current <200 pA.
Data analysis was performed using Clampfit (V10.2) in combination with Microsoft Excel™ (Redmond, Wash., USA). Current voltage relationships were plotted from the peak current (baseline subtracted) at the individual voltage steps normalized to the vehicle addition at 10 mV. The voltage threshold for channel activation was defined as 5% activation of the peak current at 10 mV in presence of vehicle. […] The concentration needed to shift the threshold 5 mV was readout from this curve (ECΔ5 mV), as well as the ability to increase the peak current at the −10 mV step (EC30% increase). […]

[1] = resting, read-out: hKv1.1/1.2 (Qpatch) Resting IC50
[2] = use-dependent, read-out: hKv1.1/1.2 (Qpatch) Use-dependent IC50

Chain of hKv1.1/1.2 (Q09470 whole entry): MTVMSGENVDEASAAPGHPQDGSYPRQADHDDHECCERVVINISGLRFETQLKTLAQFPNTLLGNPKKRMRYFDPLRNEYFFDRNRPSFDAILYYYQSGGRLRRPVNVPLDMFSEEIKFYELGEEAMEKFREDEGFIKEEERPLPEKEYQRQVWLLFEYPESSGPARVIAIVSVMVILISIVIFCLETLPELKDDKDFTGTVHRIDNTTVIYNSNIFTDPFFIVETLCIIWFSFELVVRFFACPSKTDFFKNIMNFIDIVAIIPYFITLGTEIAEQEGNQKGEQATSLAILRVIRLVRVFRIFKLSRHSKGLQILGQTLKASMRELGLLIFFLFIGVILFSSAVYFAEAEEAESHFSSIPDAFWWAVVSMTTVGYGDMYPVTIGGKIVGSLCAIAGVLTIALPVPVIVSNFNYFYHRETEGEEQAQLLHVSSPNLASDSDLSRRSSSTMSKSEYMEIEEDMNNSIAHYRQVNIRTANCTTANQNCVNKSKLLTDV
Chain of hKv1.1/1.2 (P16389 whole entry): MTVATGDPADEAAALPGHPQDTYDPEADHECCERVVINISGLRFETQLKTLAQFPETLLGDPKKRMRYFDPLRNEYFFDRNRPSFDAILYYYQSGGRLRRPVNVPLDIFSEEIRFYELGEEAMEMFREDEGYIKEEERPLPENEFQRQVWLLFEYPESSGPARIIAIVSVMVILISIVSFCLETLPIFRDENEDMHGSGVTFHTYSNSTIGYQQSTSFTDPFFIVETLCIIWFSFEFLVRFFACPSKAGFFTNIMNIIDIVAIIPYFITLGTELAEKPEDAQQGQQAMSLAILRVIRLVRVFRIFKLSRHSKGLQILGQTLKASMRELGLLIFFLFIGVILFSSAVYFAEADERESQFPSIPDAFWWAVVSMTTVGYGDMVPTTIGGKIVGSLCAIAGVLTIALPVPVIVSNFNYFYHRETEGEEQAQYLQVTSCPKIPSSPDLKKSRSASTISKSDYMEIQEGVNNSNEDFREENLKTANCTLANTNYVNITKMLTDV

IC50 (hKv1.1/1.2; [1]) [µM] | IC50 (hKv1.1/1.2; [2]) [µM] | hKv3.4 ECΔ30% increase (human Kv3.4) [µM] | hKv3.4 ECΔ5 mV (human Kv3.4) [µM] | SMILES
> 30 | > 30 | >30 | >30 | Cc1cnc(CNC(=O)c2ccn(S(=O)(=O)c3ccc(F)cc3C)c2)cn1 [Compound 90, 1-(4-fluoro-2-methylbenzene-1-sulfonyl)-N-[(5-methylpyrazin-2-yl)methyl]-1H-pyrrole-3-carboxamide]
> 30 | ≥ 30 | >30 | 14.4 | Cc1ccc(S(=O)(=O)n2ccc(C(=O)NCc3ncco3)c2)cc1 [Compound 86, 1-(4-methylbenzene-1-sulfonyl)-N-[(1,3-oxazol-2-yl)methyl]-1H-pyrrole-3-carboxamide]
